In brackets after ≈: the same amount, converted by molar mass.

This is an account of results in PMC10051608, “Multi-Compartmental Dissolution Method, an Efficient Tool for the Development of Enhanced Bioavailability Formulations Containing Poorly Soluble Acidic Drugs” (Pharmaceutics, 2023).

The conditions of data set [1]: literature data measured at 25 °C; cited from earlier work.
Data set [2] in a line: Equilibrium solubility in biorelevant media, saturation shake-flask method. It is filed as physicochemical. Particulars: for solubility thermodynamic at 6 h: thermodynamic from solid, read-out: SpH ± SD; for increase in solubility: biorelevant media.
Procedure: The saturation shake–flask method was used to determine the equilibrium solubility of the API [34, 35]. The measurements were carried out at 37 ± 0.1 °C. […] In case it was necessary, the pH was adjusted to the initial value with 1M NaOH solution after 1 h. The flasks were then placed in a GFL 1092 type shaking water bath (GFL GmbH, Burgwedel, Germany) and shaken at 150 rpm for 6 h. The agitation phase was followed by 18 h sedimentation at controlled temperature. A total of 3 aliquot (10–100 µL) samples were then taken from the saturated solution and diluted to the required extent (2–250x) with the tested medium. The concentration was measured by UV spectroscopy at λmax: 264 nm. […] In each medium, the solubility experiments were performed in triplicate. […] The equilibrium solubility was also investigated in biorelevant media modelling gastric and small intestinal fluid in a fasted and fed state with and without solubilizing agents (pepsin or lecithin and bile acid salts). The tested biorelevant media were Blank FaSSGF, FaSSGF, Blank FaSSIF, FaSSIF, FeSSGF-acetate (without milk), Blank FeSSIF, and FeSSIF.
A short description of data set [3]: pH-dependent equilibrium solubility, saturation shake-flask method in Britton-Robinson buffers and 1 M NaOH. Format: physicochemical. Particulars: 37 °C; for solubility thermodynamic at 6 h: aqueous buffer, thermodynamic from solid, mean of 3, read-out: SpH ± SD.
Procedure: The saturation shake–flask method was used to determine the equilibrium solubility of the API [34, 35]. The measurements were carried out at 37 ± 0.1 °C. […] In case it was necessary, the pH was adjusted to the initial value with 1M NaOH solution after 1 h. The flasks were then placed in a GFL 1092 type shaking water bath (GFL GmbH, Burgwedel, Germany) and shaken at 150 rpm for 6 h. The agitation phase was followed by 18 h sedimentation at controlled temperature. A total of 3 aliquot (10–100 µL) samples were then taken from the saturated solution and diluted to the required extent (2–250x) with the tested medium. The concentration was measured by UV spectroscopy at λmax: 264 nm. […] In each medium, the solubility experiments were performed in triplicate.

With `CC(C)Cc1ccc(C(C)C(=O)O)cc1` (stereo not drawn) [ibuprofen], in data set [1], the “intrinsic solubility logS0” value is reported as −3.62. Besides, the solubility thermodynamic at 6 h in data set [2] (FeSSGF-acetate (without milk), fassgf or other biorelevant, FeSSGF-acetate, pH 4.5, 37 °C) came out at 194 ± 2 µg/mL (≈ 0.94 mM); in data set [2] (fassgf or other biorelevant, FeSSIF blank, pH 5.0, 37 °C) it was 416 ± 12 µg/mL (≈ 2.02 mM); in data set [2] (FaSSIF, pH 6.5, 37 °C), 3160 ± 31 µg/mL (≈ 15.3 mM); in data set [2] (FeSSIF, pH 5.0, 37 °C), 2100 ± 56 µg/mL (≈ 10.2 mM); in data set [3] (BR (Britton-Robinson) buffer, pH 1.92 (nominal pH 2.0) BR buffer) it was 70.8 ± 3 µg/mL (≈ 0.343 mM); in data set [3] (BR (Britton-Robinson) buffer, pH 3.96 BR buffer), 124 ± 13 µg/mL (≈ 0.601 mM). The solubility thermodynamic at 6 h in data set [3] (BR (Britton-Robinson) buffer, pH 5.95 BR buffer) turned out to be 1910 ± 70 µg/mL (≈ 9.26 mM); in data set [3] (BR (Britton-Robinson) buffer, pH 7.17 BR buffer), 32000 µg/mL (≈ 155 mM); in data set [3] (BR (Britton-Robinson) buffer, pH 8.02 BR buffer), 300000 µg/mL (≈ 1450 mM); in data set [3] (pH 14, 1 M NaOH) it was 734000 µg/mL (≈ 3560 mM). For the same compound, the increase in solubility in data set [2] (changing the pH from 1.6 to 4.5) was 3.4 fold; in data set [2] (changing the pH from 1.6 to 5.0), 7.4 fold; in data set [2] (changing the pH from 1.6 to 6.5), 44.6 fold. In addition, the “effect of pepsin on solubility” value in data set [2] (gastric pH) was “no effect”. Further, the logSpH is given as −3.46 mol/L in data set [3] (pH 1.92 (nominal pH 2.0) BR buffer); −3.22 mol/L in data set [3] (pH 3.96 BR buffer); −2.03 mol/L in data set [3] (pH 5.95 BR buffer); −0.81 mol/L in data set [3] (pH 7.17 BR buffer); 0.16 mol/L in data set [3] (pH 8.02 BR buffer); 0.55 mol/L in data set [3] (pH 14, 1 M NaOH).
